The values that follow come from US12486218B2, “Compounds advantageous in the treatment of central nervous system diseases and disorders” (AurimMed Pharma, Inc., priority 2008, dated 2025).

For data set [1], the system named is mice. Description: Mouse formalin pain model. The data set is classed as in vivo. The note with it: 76 mg/kg i.p., at 0.5 hours.
In data set [2] the test system is mice. Put plainly: MPTP-induced Parkinson's disease model in mice, behavioral assays. The data set is classed as in vivo, C57/B16 male mice. The method, then: In FIG. 27A-27C, Data are Illustrated Showing the Effect of Oral Treatment of mice for two weeks with compound BX in an MPTP-induced Parkinson's disease model. MPTP (1-methyl-4-phenyl-1,2,3,6-tetrahydropyridine) is a neurotoxin precursor to MPP+, which causes permanent symptoms of Parkinson's disease by destroying dopaminergic neurons in the substantia nigra of the brain. It has been used to study disease models in various animal studies.
In the study, 9 month-old C57/B16 male mice were treated for 7 days of MPTP injection at a rate of 25 mg/kg dose: once a day. Mice in the treatment group were subsequently treated with 14 days of gavage with compound BX at a rate of 50 μg/gram dose: once a day. Treatment was followed with 5 days of behavioral assays
Mice were scored on the number of legs slips per crossing.
Mice tend to groom more often when they are healthy and feeling content.

Data set [3] can be described thus: in vivo. The note with it: mouse, ip.
Description: The animal testing was performed according to methods known in the relevant art.
Data set [4] has as its system dopaminergic neurons of striatum and Substantia Nigra pars compacta. Put plainly: MPTP-treated mice, immunohistochemical analysis (tyrosine hydroxylase). Type of data set: in vivo. The note with it: two weeks of oral treatment. The protocol:
FIGS. 28A and 28B illustrate immunohistochemical analysis of the brains of mice treated with MPTP. As mentioned above, MPTP causes Parkinson's-like symptoms by destroying dopaminergic neurons in the substantia nigra of the brain. Loss of dopaminergic neurons leads to the loss of the neurotransmitter dopamine and the onset of Parkinson's symptoms. In these tests, tyrosine hydroxylase (TH) levels were measured in the Striatum (St) (FIG. 28A) and TH+ dopaminergic neurons in the Substantia Nigra pars compacta (SNpc) were counted (FIG. 28B) to assess the recovery effect of compound BX treatment from chronic MPTP-induced damage.

The test system of data set [5] is mice. Description: Maximal Electroshock Seizure (MES) test, mice i.p. The data set is classed as in vivo. The following applies: Mus musculus, ip.
Data set [6] deals with mice. Description: Subcutaneous Metrazol Seizure threshold (s.c. MET) test, mice i.p. Type of data set: in vivo. The note with it: Mus musculus.
Data set [7] has as its system type II SMA fibroblasts (GM03813). Description: SMN protein localization, gem counting in type II SMA fibroblasts. The following applies: 100 nM-10 μM, 5 days. Type of data set: cell-based. The method, then: To validate the SMN2 promoter and exon 7 screens, the effects of compounds H, H (acid form), AY, F, BX, and BY were evaluated on the basis of expression and localization of SMN protein in type II SMA fibroblasts (GM03813). In a normal cell, SMN protein localized within the nucleus to discreet foci known as gems. In SMN-deficient SMA cells, the number of gems is greatly diminished. Although the function of gems is unknown, it is believed that they are somehow involved in the snRNP assembly function of SMN. Gem counting can, therefore, be considered an assay for SMN function.
GM03813 fibroblasts were treated with different doses (100 nM-10 μM) of compounds H, H (acid form), AY, F, BX, and BY for 5 days. SMN immunostaining was then completed on these cells and the number of gems was counted in 100 randomly-selected nuclei. […] In fact, the gem counts at the highest dose of compound H approach those observed for carrier fibroblasts (GM03814). When compared against treatment with 1 μM D157495—a D156844 derivative, all of the compounds tested performed as well as or, even better than D157495.

In data set [8] the test system is rats. Description: Pilocarpine-induced Status Epilepticus in Rats (prevention; intervention @ 30 min).
Description: The animal testing was performed using the protocols developed in the Anticonvulsant Screening Program (ASP) at the National Institute of Neurological Disorders and Stroke (NINDS), National Institutes of Health (NIH).
For data set [9], the system named is mice. Description: Audiogenic Seizure susceptible (AGS) test, mice i.p. The data set is classed as in vivo. The note with it: Mus musculus, ip.
For data set [10], the system named is rats. Put plainly: Preliminary Hippocampal Kindling Screening in rats (i.p.). The data set is classed as in vivo. The following applies: at 100 mg/kg.
Data set [11] concerns the target CYP-450 2D6 (Homo sapiens, UniProt P10635). Put plainly: In vitro human CYP-450 study, 2D6. Type of data set: in vitro ADME. The following applies: human enzyme. An excerpt:
(§1) On the other hand, it is an inhibitor for 2C19, 2D6, 2A6 and 2C9.

Data set [12] relates to GABA receptors. Description: Electrophysiology, GABA receptor currents. The following applies: at 100 μM, holding potential −70 mV. The data set is classed as cell-based. An excerpt: The mechanisms of action of many currently marketed anticonvulsant drugs are not fully understood. Although numerous molecular targets exist wherein anticonvulsants may exert an effect, the final common pathway appears to be through modulation of voltage-gated and/or neurotransmitter-gated ion channels. Thus, the common link among the various proposed mechanisms involves the ability of an anticonvulsant to modulate ion channel function. Presently, a number of prototype anticonvulsants are thought to exert their action (at least in part) by reducing sustained, high-frequency repetitive firing of action potentials by modulating voltage-dependent sodium (Na+) channels. The effect of promising candidate substances on voltage-gated Na+ channels can be assessed using state-of-the-art electrophysiological techniques.

The target of data set [13] is CYP-450 1A2 (Homo sapiens, UniProt P05177). Description: In vitro human CYP-450 study, 1A2. Type of data set: in vitro ADME. The following applies: human enzyme.
Sequence of CYP-450 1A2 (P05177 whole entry): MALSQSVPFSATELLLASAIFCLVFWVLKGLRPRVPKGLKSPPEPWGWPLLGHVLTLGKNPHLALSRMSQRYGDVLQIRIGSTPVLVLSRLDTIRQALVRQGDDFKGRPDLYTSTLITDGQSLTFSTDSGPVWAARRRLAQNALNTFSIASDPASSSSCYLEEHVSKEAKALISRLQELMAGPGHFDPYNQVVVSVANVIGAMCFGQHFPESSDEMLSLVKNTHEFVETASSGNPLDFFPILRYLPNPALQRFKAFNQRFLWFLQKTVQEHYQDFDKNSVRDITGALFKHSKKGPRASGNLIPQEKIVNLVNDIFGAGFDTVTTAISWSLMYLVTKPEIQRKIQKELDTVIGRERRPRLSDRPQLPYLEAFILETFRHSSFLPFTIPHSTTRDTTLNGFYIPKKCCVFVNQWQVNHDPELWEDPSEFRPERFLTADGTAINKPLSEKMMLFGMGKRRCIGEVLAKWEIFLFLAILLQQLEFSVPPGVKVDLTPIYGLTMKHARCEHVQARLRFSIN
Text: as §1

Data set [14] relates to rats. Description: Lamotrigine-resistant amygdala-kindled rat model (LRM). Type of data set: in vivo. An excerpt: Resistance to Lamotrigine can be induced in rats by treating them with the drug during the kindling acquisition phase (i.e., during kindling development in the epileptogenesis phase). Subsequently, the fully kindled Lamotrigine-refractory rats (i.e., now fully manifesting seizures) are also resistant (cross-tolerant) to carbamazepine, phenytoin, and topiramate, but not to valproate (or diazepam or the clinical Phase III drug candidate, retigabine).
The Lamotrigine-resistant amygdala-kindled rat model (LRM) may thus serve as an early model of drug-resistant (i.e., pharmacoresistant, refractory) epilepsy to identify novel AEDs for further evaluation in more extensive model systems, including the phenytoin-resistant kindled rat
The LRM thus serves to identify novel broad-spectrum AEDs which may be effective in the treatment of drug-resistant epilepsies. Up to 35% of epilepsy patients continue to suffer from uncontrolled seizures because of their drug-resistant epilepsies.

For data set [15], the system named is rats. Description: Sciatic nerve ligation model in rats. The data set is classed as in vivo. The following applies: 62 mg/kg, at 0.5 hours. The protocol: [The response (threshold for foot withdrawal) was measured in grams.]
The test system of data set [16] is mice. Put plainly: Corneal kindled mouse model. The following applies: mice i.p.; 50 mg/kg @ 1.0 hr. The data set is classed as in vivo.
The subject of data set [17] is rats. Put plainly: Gender Neutral test (kindled rats). Type of data set: in vivo.
Data set [18] deals with CYP-450 2B6 (Homo sapiens, UniProt P20813). Description: In vitro human CYP-450 study, 2B6. The following applies: human enzyme. Type of data set: in vitro ADME.
Sequence of CYP-450 2B6 (P20813 whole entry): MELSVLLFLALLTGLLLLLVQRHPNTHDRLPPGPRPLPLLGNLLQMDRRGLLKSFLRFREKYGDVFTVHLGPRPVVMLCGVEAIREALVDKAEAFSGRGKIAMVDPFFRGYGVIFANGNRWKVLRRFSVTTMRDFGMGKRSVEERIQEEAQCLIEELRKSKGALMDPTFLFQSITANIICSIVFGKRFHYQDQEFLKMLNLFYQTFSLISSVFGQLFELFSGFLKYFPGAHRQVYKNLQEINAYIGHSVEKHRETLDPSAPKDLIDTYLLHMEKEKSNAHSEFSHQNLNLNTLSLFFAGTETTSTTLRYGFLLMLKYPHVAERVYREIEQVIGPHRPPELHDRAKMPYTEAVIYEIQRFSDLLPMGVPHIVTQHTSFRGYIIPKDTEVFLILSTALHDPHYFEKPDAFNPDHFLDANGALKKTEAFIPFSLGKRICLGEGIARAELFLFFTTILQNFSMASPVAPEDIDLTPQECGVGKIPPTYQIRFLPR
Text: as §1

Setting [19] is: Rattus norvegicus, 0.5 h, read-out: Intervention @ 30 min, Protection.
Setting [20] is: Rattus norvegicus, read-out: Prevention, Protection.

Each structure is given as a SMILES string.

Sequence of CYP-450 2D6 (P10635 whole entry): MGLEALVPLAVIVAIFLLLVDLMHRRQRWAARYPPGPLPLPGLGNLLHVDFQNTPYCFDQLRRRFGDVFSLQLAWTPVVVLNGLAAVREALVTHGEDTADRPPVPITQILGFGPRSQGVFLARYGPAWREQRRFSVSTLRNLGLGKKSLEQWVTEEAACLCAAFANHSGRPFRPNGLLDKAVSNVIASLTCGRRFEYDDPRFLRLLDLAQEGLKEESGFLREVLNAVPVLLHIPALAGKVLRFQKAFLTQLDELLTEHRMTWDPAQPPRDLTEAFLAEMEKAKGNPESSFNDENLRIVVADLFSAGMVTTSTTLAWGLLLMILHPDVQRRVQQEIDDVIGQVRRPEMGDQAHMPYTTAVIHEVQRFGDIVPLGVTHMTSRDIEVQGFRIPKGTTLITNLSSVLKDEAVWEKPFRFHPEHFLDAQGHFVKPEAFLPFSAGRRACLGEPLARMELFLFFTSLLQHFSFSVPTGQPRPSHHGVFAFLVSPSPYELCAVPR

In the case of `C[C@H](CC(N)=O)c1ccc(OC(F)(F)F)cc1` (single isomer, unassigned) [Compound BX, R-(−)-3-(4-Trifluoromethoxy-phenyl)butyramide], in data set [1], the “pain response, acute phase” value was 84 % of the control and the “pain response, inflammatory phase” value is 41 % of the control. Further, the “hindlimb clasping test, abnormal involuntary movement” value in data set [2] (gavage 50 μg/gram once a day for 14 days) is on record as “reduced MPTP-induced abnormal involuntary movement”. Besides, in data set [2] (oral treatment for two weeks), the “coat grooming test, grooming behavior” value is on record as “significantly improved the grooming behavior”; the “crossbeam test, motor coordination / leg slips” value was “significantly improved the motor coordination and reduced the number of leg slips”. For the same compound, the TD50 at 0.25 hr in [3] was found to be 104 mg/kg. Moreover, in [4], the “TH+ dopaminergic neurons in the Substantia Nigra pars compacta” value was “stimulated the regrowth of TH+ dopaminergic neurons” and the “tyrosine hydroxylase (TH) levels in the Striatum” value is given as “induce recovery from MPTP-induced damage in striatum”. In addition, the 50% effect level in data set [5] (mice i.p., @ 1.0 hr) (ED50) was put at a dose of 47.9 mg/kg. In data set [6] (mice i.p., @ 1.0 hr), this compound came in with an ED50 of 51.4 mg/kg. Besides, the “gem counts (SMN immunostaining, 100 nuclei)” value in [7] was “increase gem counts in a dose-dependent manner”. The responders at 155 mg/kg in data set [8] (setting [19]) worked out at 50%. Besides, in [8] (setting [20]), the responders at 100 mg/kg came to 100%. Further, in [8] (rats, 200 mg/kg, administered 30′ after the first stage 3 seizure), the “effect on convulsive SE” value was “halted the convulsive SE”. For the same compound, the 50% effect level in data set [9] (mice i.p., @ 0.5 hr) (ED50) was put at a dose of 16.5 mg/kg.

For the compound `CC(CC(N)=O)c1ccc(OC(F)(F)F)cc1` (racemic) [Compound H, 3-[4-(trifluoromethoxy)-phenyl]butyramide], in [1], the “pain response, acute phase” value was 63 % of the control. Further, in [1], the “pain response, inflammatory phase” value is on record as 63 % of the control. Also, the “seizure score, Preliminary Hippocampal Kindling Screening” value in data set [10] is “zero”. For the same compound, the “inhibition of CYP-450 2D6” value in data set [11] is reported as “inhibitor”. Also, the GABA receptor response in [12] is 108±3 % of control. Moreover, the “inhibition of CYP-450 1A2” value in [13] was “either no or only a remote possibility of inhibiting”. The TD50 in data set [3] stood at 159 mg/kg. Also, the ED50 turned out to be 76.1 mg/kg in data set [5] (mice); 76.1 mg/kg in data set [5] (mice i.p., @ 0.5 hrs); 91.4 mg/kg in data set [6] (mice i.p., @ 0.5 hrs); 91.4 mg/kg in data set [6] (mice, i.p.); 22.5 mg/kg in data set [9] (mice); 22.5 mg/kg in [9] (mice i.p., @ 0.5 hr). Moreover, the “activity in the LRM” value in [14] is “active”. Moreover, the “gem counts (SMN immunostaining, 100 nuclei)” value in data set [7] is on record as “increase gem counts in a dose-dependent manner”. Also, the “relative potency in increasing gem counts” value in data set [7] was “most potent”. Also, the responders at 176 mg/kg in data set [8] (setting [19]) stood at 97%. Also, the responders at 200 mg/kg in [8] (setting [20]) came out at 86%. The allodynic threshold in data set [15] is 455 % of the control. The “Corneal Kindled, Average seizure score” value in data set [16] is listed as 2: (0, 4,. The “Corneal Kindled, fraction of animals” value in [16] is listed as 2/4 @. For the same compound, the “efficacy in the two genders” value in data set [17] was “equally efficacious in both genders”. The “inhibition of CYP-450 2B6” value in data set [18] is given as “either no or only a remote possibility of inhibiting”.
